Source: patent publication US20020169101A1, “Treatment of sexual dysfunction” (priority 1999, published 2002)
Where two headings read alike, the source gives them in different places.

Legend:
human NMB receptor (BB1) = target: T1, human NMB receptor (BB1) (Homo sapiens, UniProt P28336); assay: BB1 binding assay ([125I][Tyr4]bombesin displacement, CHO-K1 membranes)
T1 construct: expressed in transfected cells; membranes prepared from the cells
Protocol: (§1) In the following experiments, measurement of BB1 and BB2 binding was as follows. CHO-K1 cells stably expressing cloned human NMB (for (BB1 assay) and GRP receptors (for BB2 assay) were routinely grown in Ham's F12 culture medium supplemented with 10% foetal calf serum and 2 mM glutamine. For binding experiments, cells were harvested by trypsinization, and stored frozen at −70° C. in Ham's F12 culture medium containing 5% DMSO until required. On the day of use, cells were thawed rapidly, diluted with an excess of culture medium, and centrifuged for 5 minutes at 2000 g. Cells were resuspended in 50 mM Tris-HCl assay buffer (pH 7.4 at 21° C., containing 0.02% BSA, 40 μg/mL bacitracin, 2 μg/mL chymostatin, 4 μg/mL leupeptin, and 2 μM phosphoramidon), counted, and polytronned (setting 5, 10 sec) before centrifuging for 10 minutes at 28,000 g. The final pellet was resuspended in assay buffer to a final cell concentration of 1.5×10^5/mL. For binding assays, […] aliquots of membranes were incubated with [^125I][Tyr^4]bombesin (<0.1 nM) in the presence and absence of test compounds (final assay volume 250 μL) for 60 minutes and 90 minutes for NMB and GRP receptors, respectively. Nonspecific binding was defined by 1 μM bombesin. Assays were terminated by rapid filtration under vacuum onto Whatman GF/C filters presoaked in 0.2% PEI for >2 hours, and washed 50 mM Tris-HCl (pH 6.9 at 21° C.; 6×1 mL). Radioactivity bound was determined using a gamma counter.
(§2) All competition data was analysed using nonlinear regression utilizing iterative curve-plotting procedures in Prism® (GraphPad Software Inc., San Diego, USA). IC50 values were corrected to Ki values using the Cheng-Prusoff equation (Cheng Y., Prusoff W. H., Biochem. Pharmacol. 22: 3099-3108, 1973). obtained are listed in Table 1.

human GRP receptor (BB2) = target: T2, human GRP receptor (BB2) (Homo sapiens, UniProt P30550); assay: BB2 binding assay ([125I][Tyr4]bombesin displacement, CHO-K1 membranes)
T2 construct: expressed in transfected cells; membranes prepared from the cells
T2 sequence (P30550 whole entry): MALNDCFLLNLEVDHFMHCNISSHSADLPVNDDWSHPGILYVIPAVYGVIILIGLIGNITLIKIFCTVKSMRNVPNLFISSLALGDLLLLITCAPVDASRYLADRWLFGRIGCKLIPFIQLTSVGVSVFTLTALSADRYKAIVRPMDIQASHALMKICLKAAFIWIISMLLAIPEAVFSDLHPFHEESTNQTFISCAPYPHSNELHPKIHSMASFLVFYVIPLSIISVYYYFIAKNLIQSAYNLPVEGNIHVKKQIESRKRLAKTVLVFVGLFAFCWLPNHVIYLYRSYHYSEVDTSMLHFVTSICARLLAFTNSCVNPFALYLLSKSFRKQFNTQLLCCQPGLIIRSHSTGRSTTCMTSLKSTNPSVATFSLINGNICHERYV
Protocol: as §1, §2

[1] = Table 3, N-acyl derivatives of Intermediate III-7
[2] = second 'TABLE 4', N-terminal urethane derivatives of Intermediate III-7
[3] = binding studies to the bombesin receptors

T1 sequence (P28336 whole entry): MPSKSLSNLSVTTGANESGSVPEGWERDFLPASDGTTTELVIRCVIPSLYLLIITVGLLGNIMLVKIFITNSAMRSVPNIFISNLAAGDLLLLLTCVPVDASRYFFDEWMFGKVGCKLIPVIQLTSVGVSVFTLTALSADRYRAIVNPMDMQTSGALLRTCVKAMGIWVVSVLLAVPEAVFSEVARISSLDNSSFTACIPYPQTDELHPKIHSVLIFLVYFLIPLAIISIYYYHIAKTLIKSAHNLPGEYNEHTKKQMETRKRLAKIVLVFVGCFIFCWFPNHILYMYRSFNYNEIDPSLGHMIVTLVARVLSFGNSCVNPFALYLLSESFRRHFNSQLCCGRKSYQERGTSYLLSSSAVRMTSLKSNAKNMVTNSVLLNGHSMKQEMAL

Compound | IC50 (human NMB receptor (BB1); [1]) | IC50 (human GRP receptor (BB2); [1]) | other results
C[C@@](Cc1c[nH]c2ccccc12)(NC(=O)OCc1cccc(Cl)c1Cl)C(=O)NCC1(c2ccccn2)CCCCC1 [Example 109, {(S)-2-(1H-Indol-3-yl)-1-methyl-1-[(1-pyridin-2-yl-cyclohexylmethyl)-carbamoyl]-ethyl}-carbamic acid 2,3-dichloro-benzyl ester] |  |  | IC50 (human NMB receptor (BB1); [2]): 152 nM; IC50 (human GRP receptor (BB2); [2]): > 10000 nM
C[C@@](Cc1c[nH]c2ccccc12)(NS(=O)(=O)c1cccc(F)c1)C(=O)NCC1(c2ccccn2)CCCCC1 [Example 126] |  |  | IC50 (human NMB receptor (BB1)): 407 nM; IC50 (human GRP receptor (BB2)): 2760 nM
Cc1ccc(CC(=O)N[C@@](C)(Cc2c[nH]c3ccccc23)C(=O)NCC2(c3ccccn3)CCCCC2)cc1 [Example 50, (S)-3-(1H-Indol-3-yl)-2-methyl-N-(1-pyridin-2-yl-cyclohexylmethyl)-2-(2-p-tolyl-ethanoylamino)-propionamide] | 944 nM | > 10000 nM | 
COc1ccc(CC(=O)N[C@@](C)(Cc2c[nH]c3ccccc23)C(=O)NCC2(c3ccccn3)CCCCC2)cc1 [Example 82, (S)-3-(1H-Indol-3-yl)-2-[2-(4-methoxy-phenyl)-ethanoylamino]-2-methyl-N-(1-pyridin-2-yl-cyclohexylmethyl)-propionamide] | 1690 nM | > 10000 nM | 
C[C@@](Cc1c[nH]c2ccccc12)(NC(=O)OCc1cccc([N+](=O)[O-])c1)C(=O)NCC1(c2ccccn2)CCCCC1 [Example 99, {(S)-2-(1H-Indol-3-yl)-1-methyl-1-[(1-pyridin-2-yl-cyclohexylmethyl)-carbamoyl]-ethyl}-carbamic acid 3-nitro-benzyl ester] |  |  | IC50 (human NMB receptor (BB1); [2]): 17 nM; IC50 (human GRP receptor (BB2); [2]): 612 nM
CC(C)(C)c1ccc(COC(=O)N[C@@](C)(Cc2c[nH]c3ccccc23)C(=O)NCC2(c3ccccn3)CCCCC2)cc1 [Example 98, {(S)-2-(1H-Indol-3-yl)-1-methyl-1-[(1-pyridin-2-yl-cyclohexylmethyl)-carbamoyl]-ethyl}-carbamic acid 4-tert-butyl-benzyl ester] |  |  | IC50 (human NMB receptor (BB1); [2]): 1990 nM; IC50 (human GRP receptor (BB2); [2]): > 10000 nM
Cc1cccc(CC(=O)N[C@@](C)(Cc2c[nH]c3ccccc23)C(=O)NCC2(c3ccccn3)CCCCC2)c1 [Example 54, (S)-3-(1H-Indol-3-yl)-2-methyl-N-(1-pyridin-2-yl-cyclohexylmethyl)-2-(2-m-tolyl-ethanoylamino)-propionamide] | 817 nM | > 10000 nM | 
Cc1ccc(Oc2ccccc2S(=O)(=O)N[C@@](C)(Cc2c[nH]c3ccccc23)C(=O)NCC2(c3ccccn3)CCCCC2)cc1 [Example 153, (S)-3-(1H-indol-3-yl)-2-methyl-N-(1-pyridin-2-yl-cyclohexylmethyl)-2-(2-p-tolyloxy-benzenesulfonylamino)-propionamide] |  |  | IC50 (human NMB receptor (BB1)): 90 nM; IC50 (human GRP receptor (BB2)): > 10000 nM
CN(C)c1ccc(CC(=O)N[C@@](C)(Cc2c[nH]c3ccccc23)C(=O)NCC2(c3ccccn3)CCCCC2)cc1 [Example 83, (S)-2-[2-(4-Dimethylamino-phenyl)-ethanoylamino]-3-(1H-indol-3-yl)-2-methyl-N-(1-pyridin-2-yl-cyclohexylmethyl)-propionamide] | 2710 nM | > 10000 nM | 
C[C@@](Cc1c[nH]c2ccccc12)(NS(=O)(=O)c1ccc(F)cc1)C(=O)NCC1(c2ccccn2)CCCCC1 [Example 122] |  |  | IC50 (human NMB receptor (BB1)): 560 nM; IC50 (human GRP receptor (BB2)): 4160 nM
C[C@@](Cc1c[nH]c2ccccc12)(NC(=O)c1ccc([N+](=O)[O-])cc1)C(=O)NCC1(c2ccccn2)CCCCC1 [Example 36, N—{(S)-2-(1H-Indol-3-yl)-1-methyl-1-[(1-pyridin-2-yl-cyclohexylmethyl)-carbamoyl]-ethyl}-4-nitro-benzamide] | 343 nM | > 10000 nM | 
C[C@@](Cc1c[nH]c2ccccc12)(NC(=O)Cc1ccccc1[N+](=O)[O-])C(=O)NCC1(c2ccccn2)CCCCC1 [Example 84, (S)-3-(1H-Indol-3-yl)-2-methyl-2-[2-(2-nitro-phenyl)-ethanoylamino]-N-(1-pyridin-2-yl-cyclohexylmethyl)-propionamide] | 1980 nM | > 10000 nM | 
C[C@@](Cc1c[nH]c2ccccc12)(NS(=O)(=O)c1cccc(Cl)c1)C(=O)NCC1(c2ccccn2)CCCCC1 [Example 130] |  |  | IC50 (human NMB receptor (BB1)): 331 nM; IC50 (human GRP receptor (BB2)): 2690 nM
C[C@@](Cc1c[nH]c2ccccc12)(NC(=O)OCc1ccc2ccccc2c1)C(=O)NCC1(c2ccccn2)CCCCC1 [Example 89, {(S)-2-(1H-Indol-3-yl)-1-methyl-1-[(1-pyridin-2-yl-cyclohexylmethyl)-carbamoyl]-ethyl}-carbamic acid naphthalen-2-ylmethyl ester] |  |  | IC50 (human NMB receptor (BB1); [2]): 1000 nM; IC50 (human GRP receptor (BB2); [2]): > 10000 nM
C[C@@](Cc1c[nH]c2ccccc12)(NC(=O)OCc1ccc(Cl)c(Cl)c1)C(=O)NCC1(c2ccccn2)CCCCC1 [Example 91, {(S)-2-(1H-Indol-3-yl)-1-methyl-1-[(1-pyridin-2-yl-cyclohexylmethyl)-carbamoyl]-ethyl}-carbamic acid 3,4-dichloro-benzyl ester] |  |  | IC50 (human NMB receptor (BB1); [2]): 202 nM; IC50 (human GRP receptor (BB2); [2]): > 10000 nM
COc1ccc(C2(CNC(=O)[C@](C)(Cc3c[nH]c4ccccc34)NC(=O)c3cc4ccccc4[nH]3)CCCCC2)nc1 [Example 86, 1H-Indole-2-carboxylic Acid ((S)-2-(1H-indol-3-yl)-1-{[1-(5-methoxy-pyridin-2-yl)-cyclohexylmethyl]-carbamoyl}-1-methyl-ethyl)-amide] |  |  | IC50 (human NMB receptor (BB1); [3]): 11 nM; IC50 (human GRP receptor (BB2); [3]): 119 nM
C[C@@](Cc1c[nH]c2ccccc12)(NC(=O)OCc1ccc(C(F)(F)F)cc1)C(=O)NCC1(c2ccccn2)CCCCC1 [Example 101, {(S)-2-(1H-Indol-3-yl)-1-methyl-1-[(1-pyridin-2-yl-cyclohexylmethyl)-carbamoyl]-ethyl}-carbamic acid 4-trifluoromethyl-benzyl ester] |  |  | IC50 (human NMB receptor (BB1); [2]): 1100 nM; IC50 (human GRP receptor (BB2); [2]): > 10000 nM

The next lines start with results.

IC50 (human NMB receptor (BB1); [1]) | IC50 (human GRP receptor (BB2); [1]) | Compound | other results
361 nM | > 10000 nM | C[C@@](Cc1c[nH]c2ccccc12)(NC(=O)c1ccccc1-n1cccc1)C(=O)NCC1(c2ccccn2)CCCCC1 [Example 81, N—{(S)-2-(1H-Indol-3-yl)-1-methyl-1-[(1-pyridin-2-yl-cyclohexylmethyl)-carbamoyl]-ethyl}-2-pyrrol-1-yl-benzamide] | 
4500 nM | > 10000 nM | C[C@@](Cc1c[nH]c2ccccc12)(NC(=O)c1cccc2[nH]ccc12)C(=O)NCC1(c2ccccn2)CCCCC1 [Example 68, 1H-Indole-4-carboxylic acid {(S)-2-(1H-indol-3-yl)-1-methyl-1-[(1-pyridin-2-yl-cyclohexylmethyl)-carbamoyl]-ethyl}-amide] | 
4580 nM | > 10000 nM | C[C@@](Cc1c[nH]c2ccccc12)(NC(=O)c1ccccc1[N+](=O)[O-])C(=O)NCC1(c2ccccn2)CCCCC1 [Example 45, N—{(S)-2-(1H-Indol-3-yl)-1-methyl-1-[(1-pyridin-2-yl-cyclohexylmethyl)-carbamoyl]-ethyl}-2-nitro-benzamide] | 
1370 nM | > 10000 nM | C[C@@](Cc1c[nH]c2ccccc12)(NC(=O)c1cccc2cc[nH]c12)C(=O)NCC1(c2ccccn2)CCCCC1 [Example 69, 1H-Indole-7-carboxylic acid {(S)-2-(1H-indol-3-yl)-1-methyl-1-[(1-pyridin-2-yl-cyclohexylmethyl)-carbamoyl]-ethyl}-amide] | 
2040 nM | > 10000 nM | C[C@@](Cc1c[nH]c2ccccc12)(NC(=O)c1cccc(C#N)c1)C(=O)NCC1(c2ccccn2)CCCCC1 [Example 38, 3-Cyano-N—{(S)-2-(1H-indol-3-yl)-1-methyl-1-[(1-pyridin-2-yl-cyclohexylmethyl)-carbamoyl]-ethyl}-benzamide] | 
1270 nM | > 10000 nM | C[C@@](Cc1c[nH]c2ccccc12)(NC(=O)c1cccc(Cl)c1)C(=O)NCC1(c2ccccn2)CCCCC1 [Example 39, 3-Chloro-N—{(S)-2-(1H-indol-3-yl)-1-methyl-1-[(1-pyridin-2-yl-cyclohexyl-methyl)-carbamoyl]-ethyl}-benzamide] | 
2560 nM | > 10000 nM | COc1ccccc1C(=O)N[C@@](C)(Cc1c[nH]c2ccccc12)C(=O)NCC1(c2ccccn2)CCCCC1 [Example 46, N—{(S)-2-(1H-Indol-3-yl)-1-methyl-1-[(1-pyridin-2-yl-cyclohexylmethyl)-carbamoyl]-ethyl}-2-methoxy-benzamide] | 
4480 nM | > 10000 nM | C[C@@](Cc1c[nH]c2ccccc12)(NC(=O)c1cccc2cccnc12)C(=O)NCC1(c2ccccn2)CCCCC1 [Example 79, Quinoline-8-carboxylic acid {(S)-2-(1H-indol-3-yl)-1-methyl-1-[(1-pyridin-2-yl-cyclohexylmethyl)-carbamoyl]-ethyl}-amide] | 
